The results in this text go back to paper PMC7016291 (Acta Pharmaceutica Sinica. B, 2019).

The target in one data set is HIV-1 RT RNase H (Human immunodeficiency virus type 1 group M subtype B, UniProt P03366). Kind of data set: HIV-1 RT RNase H inhibition. The data set is classed as biochemical.
The target in a further data set is WT HIV-1 RT (Human immunodeficiency virus type 1 group M subtype B, UniProt P03366). The experiment in a line: HIV-1 RT inhibition assay. The data set is classed as biochemical.
Another data set has as its system HIV-2 (ROD). The experiment in a line: Anti-HIV activity in MT-4 cells. The data set is classed as cell-based. The following applies: Human immunodeficiency virus 2, MT4, read-out: EC50 ROD.
Data set [1] is described as follows: Cytotoxicity in uninfected MT-4 cells. The data set is classed as cell-based. The conditions noted are these: human, uninfected MT-4 cells.

For orientation: IC50 means the concentration that gives 50% inhibition. A low value points to higher potency. The EC50 is the concentration that produces a half-maximal response. A word on the CC50: it is the concentration that lowers cell viability or growth by half. Low values mean greater toxicity to the cells, high ones lower toxicity to the cells. In the case of `Cc1cc(-c2ccc(C#N)cc2)cc(C)c1Oc1nc(Nc2ccc(C#N)cc2)nc(NC2CCOCC2)n1` [Compound 5b, 4ʹ-((4-((4-Cyanophenyl)amino)-6-((tetrahydro-2H-pyran-4-yl)amino)-1,3,5-triazin-2-yl)oxy)-3ʹ,5ʹ-dimethyl-[1,1ʹ-biphenyl]-4-carbonitrile], the half-inhibitory concentration (IC50) was more than 1160 µM against HIV-1 RT RNase H and 0.263 µM against WT HIV-1 RT. Moreover, the EC50 with HIV-2 (ROD) was 2.03 ± 0.94 µM. In data set [1], this compound displayed a 50% cytotoxic concentration (CC50) at 4 days of more than 125 µM.

For `Cc1cc(-c2ccc(C#N)cc2)cc(C)c1Oc1nc(NCC2CCOC2)nc(Nc2ccc(C#N)cc2)n1` (stereo not shown) [Compound 5c, 4ʹ-((4-((4-Cyanophenyl)amino)-6-(((tetrahydrofuran-3-yl)methyl)amino)-1,3,5-triazin-2-yl)oxy)-3ʹ,5ʹ-dimethyl-[1,1ʹ-biphenyl]-4-carbonitrile], the IC50 against HIV-1 RT RNase H was more than 1160 µM; against WT HIV-1 RT it was 0.216 µM. Further, the concentration giving a half-maximal response (EC50) in the data set on HIV-2 (ROD) came out at 1.01 ± 0.21 µM. In data set [1], the CC50 at 4 days was more than 125 µM.

With `COC(=O)[C@@H]1CCCN1c1nc(Nc2ccc(C#N)cc2)nc(Oc2c(C)cc(-c3ccc(C#N)cc3)cc2C)n1` [Compound 5d, Methyl (4-((4ʹ-cyano-3,5-dimethyl-[1,1ʹ-biphenyl]-4-yl)oxy)-6-((4-cyanophenyl)-amino)-1,3,5-triazin-2-yl)-L-prolinate], the results for the 50% inhibitory concentration (IC50) against HIV-1 RT RNase H and on WT HIV-1 RT were more than 1100 µM and 0.273 µM, respectively. For the same compound, the EC50 in the data set with HIV-2 (ROD) was more than 2.23 µM. The midpoint of cytotoxicity in data set [1], the CC50 at 4 days, lay at 2.23 ± 1.09 µM.

Turning to `Cc1cc(-c2ccc(C#N)cc2)cc(C)c1Oc1nc(Nc2ccc(C#N)cc2)nc(N2CCOCC2)n1` [Compound 5e, 4ʹ-((4-((4-Cyanophenyl)amino)-6-morpholino-1,3,5-triazin-2-yl)oxy)-3ʹ,5ʹ-dimeth-yl-[1,1ʹ-biphenyl]-4-carbonitrile], the IC50 is 659 µM against HIV-1 RT RNase H and 0.195 µM against WT HIV-1 RT. Besides, the “activity against RNase H” value on HIV-1 RT RNase H is given as “slight activity”. For the same compound, the 50% effective concentration (EC50) in the data set on HIV-2 (ROD) worked out at 3.61 ± 0.55 µM. Further, the CC50 at 4 days in data set [1] is more than 125 µM.

Consider `Cc1cc(-c2ccc(C#N)cc2)cc(C)c1Oc1nc(Nc2ccc(C#N)cc2)nc(N2CCNCC2)n1` [Compound 5f, 4ʹ-((4-((4-Cyanophenyl)amino)-6-(piperazin-1-yl)-1,3,5-triazin-2-yl)oxy)-3ʹ,5ʹ-dimethyl-[1,1ʹ-biphenyl]-4-carbonitrile], for which the half-maximal inhibitory concentration (IC50) against HIV-1 RT RNase H was more than 1190 µM; on WT HIV-1 RT, 0.482 µM. For the same compound, the EC50 with HIV-2 (ROD) was more than 9.8 µM. The CC50 at 4 days in data set [1] amounted to 9.8 ± 7.31 µM.

Take `Cc1cc(-c2ccc(C#N)cc2)cc(C)c1Oc1nc(Nc2ccc(C#N)cc2)nc(N2CCCC2CO)n1` (stereo not shown) [Compound 5g, 4ʹ-((4-((4-Cyanophenyl)amino)-6-(2-(hydroxymethyl)pyrrolidin-1-yl)-1,3,5-triazin-2-yl)oxy)-3ʹ,5ʹ-dimethyl-[1,1ʹ-biphenyl]-4-carbonitrile]: the IC50 is more than 1160 µM at HIV-1 RT RNase H and 0.28 µM against WT HIV-1 RT. The concentration giving a half-maximal response (EC50) in the data set with HIV-2 (ROD) came out at 1.56 ± 0.49 µM. The CC50 at 4 days in data set [1] is more than 125 µM.

Regarding `Cc1cc(-c2ccc(C#N)cc2)cc(C)c1Oc1nc(Nc2ccc(C#N)cc2)nc(N2CCC(O)CC2)n1` [Compound 5i, 4ʹ-((4-((4-Cyanophenyl)amino)-6-(4-hydroxypiperidin-1-yl)-1,3,5-triazin-2-yl)-oxy)-3ʹ,5ʹ-dimethyl-[1,1ʹ-biphenyl]-4-carbonitrile], on HIV-1 RT RNase H, 500 µM corresponded to half-maximal inhibition (IC50) and the “activity against RNase H” value was “slight activity”. Also, at WT HIV-1 RT, the IC50 was 0.282 µM. The EC50 with HIV-2 (ROD) amounted to 1.51 ± 0.26 µM. The compound also had a CC50 at 4 days in data set [1] of 14.9 ± 7.89 µM.

For `Cc1cc(-c2ccc(C#N)cc2)cc(C)c1Oc1nc(NCCN2CCN(C)CC2)nc(Nc2ccc(C#N)cc2)n1` [Compound 5k, 4ʹ-((4-((4-Cyanophenyl)amino)-6-((2-(4-methylpiperazin-1-yl)ethyl)amino)-1,3,5-triazin-2-yl)oxy)-3ʹ,5ʹ-dimethyl-[1,1ʹ-biphenyl]-4-carbonitrile], the results for the concentration for half-maximal inhibition (IC50) against HIV-1 RT RNase H and on WT HIV-1 RT were more than 1070 µM and 0.658 µM, respectively. Moreover, the EC50 with HIV-2 (ROD) was more than 14.1 µM. In data set [1], this compound yielded a CC50 at 4 days of 14.1 ± 3.47 µM.
